Data as given in PubChem BioAssay (NCI).
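Five compound concentrations were applied to cells in 96-well plates for 48 hours; endpoints were derived by simple linear interpolation of the resulting dose-response curve. At the TGI there is no net growth.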

Columns and labels:
Experiment in all cases: NCI tumour cell line growth inhibition, 48 h
[1] = tested on: SW-620 colon
[2] = tested on: A549 NSCLC
[3] = tested on: SK-MEL-28 melanoma
[4] = tested on: SR leukemia
[5] = tested on: UO-31 renal
[6] = tested on: HOP-92 NSCLC
[7] = tested on: OVCAR-5 ovarian
[8] = tested on: U251 CNS
[9] = tested on: SK-MEL-2 melanoma
[10] = tested on: T-47D breast
[11] = tested on: CCRF-CEM leukemia
[12] = tested on: MDA-MB-435
[13] = tested on: MCF7 breast
[14] = tested on: SNB-75 CNS
[15] = tested on: NCI-H460 lung
[16] = tested on: OVCAR-3 ovarian
[17] = tested on: COLO 205 colon
[18] = tested on: SNB-19 CNS
[19] = tested on: NCI-H522 lung
[20] = tested on: ACHN renal
[21] = tested on: A498 renal
[22] = tested on: SK-OV-3 ovarian
[23] = tested on: SF-539 CNS
[24] = tested on: K-562 leukemia
[25] = tested on: MDA-MB-231 breast
[26] = tested on: CAKI-1 renal
[27] = tested on: BT-549 breast
[28] = tested on: HS 578T breast
[29] = tested on: TK-10 renal
[30] = tested on: PC-3 prostate
[31] = tested on: EKVX NSCLC
[32] = tested on: KM12 colon
[33] = tested on: IGROV1 ovarian
[34] = tested on: HCT-116 colon
[35] = tested on: SK-MEL-5 melanoma
[36] = tested on: HCT-15 colon
[37] = tested on: UACC-62 melanoma
[38] = tested on: HOP-62 NSCLC
[39] = tested on: HL-60(TB) leukemia
[40] = tested on: DU-145 prostate
[41] = tested on: 786-0 renal
[42] = tested on: LOX IMVI melanoma
[43] = tested on: RXF 393 renal
[44] = tested on: MOLT-4 leukemia
[45] = tested on: SF-295 CNS
[46] = tested on: OVCAR-4 ovarian
[47] = tested on: RPMI-8226 leukemia
[48] = tested on: UACC-257 melanoma
[49] = tested on: OVCAR-8 ovarian
[50] = tested on: NCI-H23 lung
[51] = tested on: NCI-H226 lung
[52] = tested on: HCC-2998 colon
[53] = tested on: HT29 colon
[54] = tested on: MALME-3M melanoma
[55] = tested on: SF-268 CNS
[56] = tested on: NCI/ADR-RES ovarian

Structure (SMILES): Cc1cc2n[n+]3[n-]cc(-c4ccccc4)n3c2cc1[N+](=O)[O-]
- TGI [1]: > 100 µM
- TGI [2]: > 100 µM
- TGI [3]: > 100 µM
- TGI [4]: > 100 µM
- TGI [5]: > 100 µM
- TGI [6]: > 100 µM
- TGI [7]: > 100 µM
- TGI [8]: > 100 µM
- TGI [9]: > 100 µM
- TGI [10]: > 100 µM
- TGI [11]: > 100 µM
- TGI [12]: > 100 µM
- TGI [13]: > 100 µM
- TGI [14]: > 100 µM
- TGI [15]: > 100 µM
- TGI [16]: > 100 µM
- TGI [17]: > 100 µM
- TGI [18]: > 100 µM
- TGI [19]: > 100 µM
- TGI [20]: > 100 µM
- TGI [21]: > 100 µM
- TGI [22]: > 100 µM
- TGI [23]: > 100 µM
- TGI [24]: > 100 µM
- TGI [25]: > 100 µM
- TGI [26]: > 100 µM
- TGI [27]: > 100 µM
- TGI [28]: > 100 µM
- TGI [29]: > 100 µM
- TGI [30]: > 100 µM
- TGI [31]: > 100 µM
- TGI [32]: > 100 µM
- TGI [33]: > 100 µM
- TGI [34]: > 100 µM
- TGI [35]: > 100 µM
- TGI [36]: > 100 µM
- TGI [37]: > 100 µM
- TGI [38]: > 100 µM
- TGI [39]: > 100 µM
- TGI [40]: > 100 µM
- TGI [41]: > 100 µM
- TGI [42]: > 100 µM
- TGI [43]: > 100 µM
- TGI [44]: > 100 µM
- TGI [45]: > 100 µM
- TGI [46]: > 100 µM
- TGI [47]: > 100 µM
- TGI [48]: > 100 µM

Structure (SMILES): Cc1nc2ccc(F)cc2c(Cl)c1CCCl
- TGI [1]: > 100 µM
- TGI [2]: > 100 µM
- TGI [3]: > 100 µM
- TGI [4]: 44.9 µM
- TGI [5]: > 100 µM
- TGI [6]: > 100 µM
- TGI [49]: > 100 µM
- TGI [8]: > 100 µM
- TGI [50]: > 100 µM
- TGI [10]: > 100 µM
- TGI [51]: > 100 µM
- TGI [11]: 48.4 µM
- TGI [12]: 82.5 µM
- TGI [13]: 90.1 µM
- TGI [14]: > 100 µM
- TGI [52]: 84.9 µM
- TGI [15]: > 100 µM
- TGI [16]: > 100 µM
- TGI [17]: 47.2 µM
- TGI [18]: > 100 µM
- TGI [53]: > 100 µM
- TGI [19]: 93.6 µM
- TGI [20]: > 100 µM
- TGI [21]: > 100 µM
- TGI [23]: > 100 µM
- TGI [24]: 68.2 µM
- TGI [25]: 73.8 µM
- TGI [27]: > 100 µM
- TGI [28]: > 100 µM
- TGI [54]: 87.6 µM
- TGI [29]: > 100 µM
- TGI [30]: > 100 µM
- TGI [31]: > 100 µM
- TGI [32]: > 100 µM
- TGI [33]: > 100 µM
- TGI [34]: 92.8 µM
- TGI [35]: 52.7 µM
- TGI [36]: > 100 µM
- TGI [37]: 94.6 µM
- TGI [55]: > 100 µM
- TGI [38]: > 100 µM
- TGI [39]: 35 µM
- TGI [40]: > 100 µM
- TGI [41]: > 100 µM
- TGI [42]: 82.8 µM
- TGI [43]: 79.9 µM
- TGI [44]: 98.6 µM
- TGI [45]: > 100 µM
- TGI [46]: > 100 µM
- TGI [47]: > 100 µM
- TGI [56]: > 100 µM
- TGI [48]: > 100 µM
